In patent US4032654A, “Water-soluble, liquid concentrates of S-methyl-[(methyl-carbamoyl)oxy]-thioacetimidate and methyl N', N'-dimethyl-N-[(methyl-carbamoyl)oxy]-1-thiooxamimidate” (priority 1975, dated 1977):
Converted amounts (≈) assume the structure as drawn. “And” between values parts separate entries of the source, which are not always exact repeats. Equal entries are not always repeated. Where two headings read alike, the source gives them in different places.

Columns and labels:
[1] = Description: Methomyl and/or oxamyl were added to a solvent system consisting of 60% cyclohexanone, 10% methanol and 30% water at room temperature at a concentration higher than the solubility limit at -6° C. The methomyl and oxamyl were added together, at weight ratios of 2:1, 1:1 and 1:2.5. The solutions were cooled to -6° C. and seeded with methomyl and/or oxamyl to initiate crystallization. The solutions remained at -6° C. until equilibrium was assured. The supernatant liquid in each sample was analyzed for methomyl and oxamyl by liquid chromatography.
[2] = remark: listed apart in the source
Description: Methomyl and Oxamyl Solubility In Cyclohexanone, Cyclohexanol, CH3 OH and H2 O at -6° C.
Methomyl and oxamyl were dissolved separately and in weight ratios of 1:1, 2:1 and 1:2.5 methomyl to oxamyl in a solvent system consisting of 30 wt. % cyclohexanone, 30 wt. % cyclohexanol, 30 wt. % water and 10 wt. % methanol. These solutions were equilibrated at -6° C. and seeded with methomyl and/or oxamyl crystals. The samples of liquid and solids remained at -6° C. until solid-liquid equilibrium was assured. A liquid sample was removed from each at -6° C. and assayed for methomyl and/or oxamyl. Solids were also isolated at -6° C., washed, dried and dissolved in CH3 OH to yield a 10% solution which was analyzed by TLC to ensure both methomyl and oxamyl crystals were present in the solids of the combination sample. All such solids contained both oxamyl and methomyl.
SOLUBILITY OF METHOMYL AND OXAMYL (2:1, 1:1 and 1:2.5 Wt.
RATIOS) IN CYCLOHEXANONE, CYCLOHEXANOL, CH3 OH AND H2 O

[3] = remark: listed apart in the source
Description: Solubility of Methomyl and Oxamyl 80:20 Wt. Ratio Acetone:H2 O
Methomyl and oxamyl were dissolved in a solvent system consisting of 80 wt. % acetone and 20 wt. % water separately and in 1:1, 2:1 and 1:2.5 wt. ratios of methomyl and oxamyl. These solutions were equilibrated at -6° C. and were seeded with methomyl and/or oxamyl. They remained at -6° C. until solid-liquid equilibrium was assured. Liquid was removed from each sample at -6° C. and assayed for methomyl and oxamyl. Solids were also removed at -6° C., washed, dried and dissolved in methanol to yield a 10 wt. % solution which was evaluated by TLC for oxamyl and methomyl.

physchem [4] = conditions: for solubility: Oxamyl alone in solvent
Description: Methomyl and oxamyl were added to various methanol:water solvent systems ranging from 100% CH3 OH to 40% CH3 OH:60% H2 O. The methomyl and oxamyl were dissolved separately or combined on a 1:1 weight ratio in the solvent systems at room temperature at a concentration exceeding the solubility limit at -6° C. Each sample was seeded with methomyl and/or oxamyl at -6° C. and allowed to crystallize until equilibrium was established. The supernatant liquid of each sample was assayed for methomyl and/or oxamyl by liquid chromatography.

physchem [5] = conditions: for solubility: Oxamyl alone in solvent; remark: listed apart in the source
Description: Methomyl and oxamyl were added to various methanol:water solvent systems ranging from 100 wt. % CH3 OH to 30 wt. % CH3 OH:70 wt. % H2 O. […] The samples were equilibrated at -6° C. in a constant temperature freezer after which they were seeded with methomyl and oxamyl crystals to ensure crystallization of both materials. After crystal-liquid equilibrium was assured, liquid was removed at -6° C. and assayed for methomyl and oxamyl. Solids were also removed at -6° C., washed with hexane and dried. The solids were then dissolved in methanol to yield a 10 wt. % solution. This solution was evaluated by thin layer chromatography (TLC) to ensure the solids consisted of both methomyl and oxamyl.
Solubility of Methomyl and Oxamyl 1:2.5 wt. ratio in CH3 OH:H2 O at -6° C.
Example 3 was repeated by dissolving methomyl and oxamyl in a 1:2.5 weight ratio in the same solvent systems under the same conditions.

physchem [6] = conditions: for solubility: Oxamyl alone in solvent; remark: listed apart in the source
Description: Solubility of Methomyl and Oxamyl (2:1 wt. ratio) in CH3 OH/H2 O at -6° C.
Methomyl and oxamyl were added to various methanol:water solvent systems ranging from 100 wt. % CH3 OH to 30 wt. % CH3 OH:70 wt. % H2 O. The methomyl and oxamyl were dissolved in a 2:1 weight ratio of 50 wt. % methomyl to 25 wt. % oxamyl in the solvent systems. The samples were equilibrated at -6° C. in a constant temperature freezer after which they were seeded with methomyl and oxamyl crystals to ensure crystallization of both materials. After crystal-liquid equilibrium was assured, liquid was removed at -6° C. and assayed for methomyl and oxamyl. Solids were also removed at -6° C., washed with hexane and dried. The solids were then dissolved in methanol to yield a 10 wt. % solution. This solution was evaluated by thin layer chromatography (TLC) to ensure the solids consisted of both methomyl and oxamyl.

CNC(=O)ON=C(SC)C(=O)N(C)C [Oxamyl, methyl N',N'-dimethyl-N-[(methylcarbamoyl)oxy]-1-thiooxamimidate]
Solubility, both actives in solvent: Oxamyl [1]: 84.8 gms/100 gms solvent and 80.1 gms/100 gms solvent and 82.7 gms/100 gms solvent | Solubility, Oxamyl alone in solvent ([1]; alone, 60% cyclohexanone, 10% methanol, 30% water, -6° C.): 48.4 gms/100 gms solvent | Solubility, both actives in solvent: Oxamyl [2]: 83.0 gms/100 gms solvent and 63.7 gms/100 gms solvent and 61.8 gms/100 gms solvent | Solubility, Oxamyl alone in solvent ([2]; alone, 30% cyclohexanone, 30% cyclohexanol, 30% water, 10% methanol, -6° C.): 41.5 gms/100 gms solvent | Solubility, both actives in solvent: Oxamyl [3]: 84.6 gms/100 gms solvent and 79.3 gms/100 gms solvent and 82.8 gms/100 gms solvent | Solubility, Oxamyl alone in solvent ([3]; alone, 80:20 wt acetone/H2O, -6° C.): 52.0 gms/100 gms solvent | Solubility, both actives in solvent: Oxamyl (physchem [4]): 80 gms/100 gms | solubility (physchem [4]; 40/60 ch3oh/h2o, alone, -6° C.): 209 mg/mL (≈ 953 mM) | solubility (physchem [4]; 50/50 ch3oh/h2o, alone, -6° C.): 290 mg/mL (≈ 1320 mM) | solubility (physchem [4]; 60/40 ch3oh/h2o, alone, -6° C.): 397 mg/mL (≈ 1810 mM) | solubility (physchem [4]; 70/30 ch3oh/h2o, alone, -6° C.): 422 mg/mL (≈ 1920 mM) | solubility (physchem [4]; 80/20 ch3oh/h2o, alone, -6° C.): 447 mg/mL (≈ 2040 mM) | solubility (physchem [4]; 90/10 ch3oh/h2o, alone, -6° C.): 406 mg/mL (≈ 1850 mM) | Solubility, Oxamyl alone in solvent (physchem [4]; alone, 100/0 CH3OH/H2O, -6° C.): 33.3 gms/100 gms | Solubility when dissolved together in the solvents taught (physchem [4]; summary of Examples 2-7): increases in solubility occur | Solubility, both actives in solvent: Oxamyl (physchem [5]): 72.3 gms/100 gms | solubility (physchem [5]; 40/60 ch3oh/h2o, alone, -6° C.): 209 mg/mL (≈ 953 mM) | solubility (physchem [5]; 50/50 ch3oh/h2o, alone, -6° C.): 291 mg/mL (≈ 1330 mM) | solubility (physchem [5]; 60/40 ch3oh/h2o, alone, -6° C.): 396 mg/mL (≈ 1810 mM) | solubility (physchem [5]; 70/30 ch3oh/h2o, alone, -6° C.): 423 mg/mL (≈ 1930 mM) | solubility (physchem [5]; 80/20 ch3oh/h2o, alone, -6° C.): 448 mg/mL (≈ 2040 mM) | solubility (physchem [5]; 90/10 ch3oh/h2o, alone, -6° C.): 404 mg/mL (≈ 1840 mM) | Solubility, Oxamyl alone in solvent (physchem [5]; alone, 100/0 CH3OH/H2O, -6° C.): 33.3 gms/100 gms | Solubility, both actives in solvent: Oxamyl (physchem [6]): 113 gms/100 gms | solubility (physchem [6]; 40/60 ch3oh/h2o, alone, -6° C.): 209 mg/mL (≈ 953 mM) | solubility (physchem [6]; 50/50 ch3oh/h2o, alone, -6° C.): 290 mg/mL (≈ 1320 mM) | solubility (physchem [6]; 60/40 ch3oh/h2o, alone, -6° C.): 397 mg/mL (≈ 1810 mM) | solubility (physchem [6]; 70/30 ch3oh/h2o, alone, -6° C.): 422 mg/mL (≈ 1920 mM) | solubility (physchem [6]; 80/20 ch3oh/h2o, alone, -6° C.): 447 mg/mL (≈ 2040 mM) | solubility (physchem [6]; 90/10 ch3oh/h2o, alone, -6° C.): 406 mg/mL (≈ 1850 mM) | Solubility, Oxamyl alone in solvent (physchem [6]; alone, 100/0 CH3OH/H2O, -6° C.): 33.3 gms/100 gms | Solubility change when dissolved in combination (physchem [6]; methanol:water solvent systems, 2:1 wt. ratio dissolved initially, -6° C.): increased
